Results published in the supplement of paper PMC10307832.

What was measured:
Test in all cases: relative viability (nuclei count vs DMSO), 5 days (fraction); higher = more cells survive
VE-821 + Pictilisib = compound: CS(=O)(=O)c1ccc(-c2cnc(N)c(C(=O)Nc3ccccc3)n2)cc1 [VE-821] + CS(=O)(=O)N1CCN(Cc2cc3nc(-c4cccc5[nH]ncc45)nc(N4CCOCC4)c3s2)CC1 [Pictilisib] (partner 1 µM)
How it was run: (§1)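 Each reported value is a median over duplicate plates. It expresses relative viability: treated-well nuclei count divided by vehicle-well nuclei count. Lung cancer cell lines in 1536-well plates were dosed by pin tool a day after seeding, alone with one drug or with a fixed anchor-drug dose plus five library-drug doses (not always all listed) in √10 steps, and nuclei were counted after 5 days.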

VE-821 + Lapatinib = compound: CS(=O)(=O)c1ccc(-c2cnc(N)c(C(=O)Nc3ccccc3)n2)cc1 [VE-821] + CS(=O)(=O)CCNCc1ccc(-c2ccc3ncnc(Nc4ccc(OCc5cccc(F)c5)c(Cl)c4)c3c2)o1 [Lapatinib] (partner 2 µM)
How it was run: as §1

Ruxolitinib + Decitabine = compound: N#CC[C@H](C1CCCC1)n1cc(-c2ncnc3[nH]ccc23)cn1 [Ruxolitinib] + Nc1ncn([C@H]2C[C@H](O)[C@@H](CO)O2)c(=O)n1 [Decitabine] (partner 2 µM)
How it was run: as §1

Ruxolitinib + Pictilisib = compound: N#CC[C@H](C1CCCC1)n1cc(-c2ncnc3[nH]ccc23)cn1 [Ruxolitinib] + CS(=O)(=O)N1CCN(Cc2cc3nc(-c4cccc5[nH]ncc45)nc(N4CCOCC4)c3s2)CC1 [Pictilisib] (partner 1 µM)
How it was run: as §1

| Cell Line | relative viability (VE-821 + Pictilisib; first compound 0.08 µM) | relative viability (VE-821 + Pictilisib; first compound 0.253 µM) | relative viability (VE-821 + Pictilisib; first compound 0.8 µM) | relative viability (VE-821 + Pictilisib; first compound 2.53 µM) | relative viability (VE-821 + Pictilisib; first compound 8 µM) | relative viability (VE-821 + Lapatinib; first compound 0.08 µM) | relative viability (VE-821 + Lapatinib; first compound 0.253 µM) | relative viability (VE-821 + Lapatinib; first compound 0.8 µM) | relative viability (VE-821 + Lapatinib; first compound 2.53 µM) | relative viability (VE-821 + Lapatinib; first compound 8 µM) | relative viability (Ruxolitinib + Decitabine; first compound 0.08 µM) | relative viability (Ruxolitinib + Decitabine; first compound 0.253 µM) | relative viability (Ruxolitinib + Decitabine; first compound 0.8 µM) | relative viability (Ruxolitinib + Decitabine; first compound 2.53 µM) | relative viability (Ruxolitinib + Decitabine; first compound 8 µM) | relative viability (Ruxolitinib + Pictilisib; first compound 0.08 µM) | relative viability (Ruxolitinib + Pictilisib; first compound 0.253 µM) | relative viability (Ruxolitinib + Pictilisib; first compound 0.8 µM) | relative viability (Ruxolitinib + Pictilisib; first compound 2.53 µM) | relative viability (Ruxolitinib + Pictilisib; first compound 8 µM) |
| --- | --- | --- | --- | --- | --- | --- | --- | --- | --- | --- | --- | --- | --- | --- | --- | --- | --- | --- | --- | --- |
| 201T | 0.723 | 0.626 | 0.65 | 0.698 | 0.559 | 1.1 | 0.937 | 0.966 | 1.01 | 0.976 | 0.949 | 0.914 | 1 | 1.02 | 0.973 | 0.745 | 0.687 | 0.75 | 0.826 | 0.8 |
| A549 | 0.616 | 0.481 | 0.531 | 0.468 | 0.229 | 1.14 | 0.849 | 0.929 | 0.829 | 0.475 | 0.215 | 0.254 | 0.322 | 0.197 | 0.28 | 0.579 | 0.529 | 0.576 | 0.407 | 0.233 |
| A-427 | 0.763 | 0.538 | 0.54 | 0.684 | 0.389 | 1.08 | 0.998 | 1.06 | 1.1 | 0.676 | 0.566 | 0.558 | 0.579 | 0.605 | 0.58 | 0.742 | 0.749 | 0.773 | 0.371 | 0.629 |
| ABC-1 | 0.902 | 0.684 | 0.721 | 0.751 | 0.466 | 1.3 | 1.32 | 0.811 | 0.953 | 0.994 | – | 1.03 | 1.38 | 1.21 | 1.21 | 0.875 | 0.742 | 0.867 | 0.705 | 0.738 |
| BEN | 0.707 | 0.55 | 0.527 | 0.591 | 0.542 | 0.845 | 0.775 | 0.657 | 0.8 | 0.662 | 0.5 | 0.699 | 0.816 | 0.592 | 0.773 | 0.494 | 0.583 | 0.647 | 0.53 | 0.584 |
| CAL-12T | 0.479 | 0.394 | 0.448 | 0.427 | 0.314 | 0.656 | 0.7 | 0.637 | 0.839 | 0.456 | – | – | – | – | – | – | 0.355 | 0.416 | 0.435 | 0.471 |
| COR-L23 | 1.17 | 0.654 | 0.961 | 0.981 | 0.682 | 1.09 | 0.827 | 1.01 | 1.12 | 0.94 | 0.493 | 0.429 | 0.521 | 0.367 | 0.322 | 0.755 | 0.748 | 0.795 | 0.625 | 0.531 |
| COR-L 105 | 0.46 | 0.392 | 0.402 | 0.405 | 0.38 | 0.383 | 0.354 | 0.341 | 0.351 | 0.463 | – | 0.57 | 0.656 | 0.659 | 0.58 | 0.379 | 0.389 | 0.407 | 0.344 | 0.334 |
| Calu-6 | 1.1 | 0.973 | 0.918 | 0.778 | 0.523 | 1.21 | 1.05 | 1.1 | 0.89 | 0.551 | – | – | – | – | – | 0.99 | 0.943 | 0.958 | 0.828 | 0.667 |
| ChaGo-K-1 | 0.705 | 0.712 | 0.927 | 0.797 | 0.339 | – | – | – | – | – | 0.515 | 0.529 | 0.52 | 0.447 | 0.478 | – | 0.555 | 0.668 | 0.776 | 0.727 |
| EBC-1 | 0.295 | 0.353 | 0.382 | 0.433 | 0.312 | 0.241 | 0.195 | 0.209 | 0.216 | 0.265 | – | – | – | – | – | 0.386 | 0.309 | 0.583 | 0.353 | 0.32 |
| EKVX | 0.509 | 0.412 | 0.451 | 0.411 | 0.356 | 0.209 | 0.196 | 0.219 | 0.242 | 0.186 | – | 0.3 | 0.35 | 0.337 | 0.414 | 0.323 | 0.385 | 0.451 | 0.44 | 0.521 |
| EMC-BAC-2 | 0.548 | 0.528 | 0.583 | 0.593 | 0.552 | 1.04 | 0.902 | 0.97 | 1.01 | 0.873 | 0.915 | 0.916 | 1.14 | 0.921 | 0.851 | 0.534 | 0.495 | 0.57 | 0.495 | 0.384 |
| EPLC-272H | 0.427 | 0.32 | 0.347 | 0.399 | 0.309 | 1.07 | 0.976 | 1.12 | 1.24 | 0.848 | 0.408 | 0.367 | 0.439 | 0.414 | 0.36 | 0.141 | 0.36 | 0.336 | 0.281 | 0.268 |
| H3255 | 0.583 | 0.553 | 0.549 | 0.454 | 0.568 | 0.229 | 0.256 | 0.378 | 0.241 | 0.264 | – | 0.568 | 0.781 | 0.535 | 0.609 | 0.206 | 0.435 | 0.516 | 0.427 | 0.48 |
| HARA | 0.509 | 0.294 | 0.408 | 0.401 | 0.477 | 0.825 | 0.559 | 0.826 | 0.757 | 0.47 | 0.63 | 0.472 | 0.631 | 0.565 | 0.489 | 0.467 | 0.472 | 0.404 | 0.426 | 0.328 |
| HCC-15 | 0.947 | 0.757 | 0.781 | 0.92 | 0.749 | 0.958 | 0.875 | 0.87 | 1.09 | 0.796 | 0.677 | 0.553 | 0.7 | 0.55 | 0.48 | 0.701 | 0.77 | 0.789 | 0.703 | 0.737 |
